Measurements: patent US20250255883A1, “Compositions and Methods for Treating Aging Hair” (CHL Industries, LLC, priority 2021, published 2025)

System: Normal human keratinocytes (HEKa)
Test: Real-time quantitative PCR gene expression in normal human keratinocytes treated for 24 hours
Type: cell-based
Conditions: vs. water-treated control

diethyl ester of copper (II) chlorin e6 [DECCE6]
Fold Up- or Down-Regulation 18S (gene 18S (housekeeping), 20 ug/mL): 1.2 Fold
Fold Up- or Down-Regulation AQP3 (gene AQP3, 20 ug/mL): 5.5 Fold
Fold Up- or Down-Regulation AREL1 (gene AREL1, 20 ug/mL): −5.8 Fold
Fold Up- or Down-Regulation ARRDC3 (gene ARRDC3, 20 ug/mL): 1.9 Fold
Fold Up- or Down-Regulation BAMBI (gene BAMBI, 20 ug/mL): 1.3 Fold
Fold Up- or Down-Regulation CCL20 (gene CCL20, 20 ug/mL): 2.6 Fold
Fold Up- or Down-Regulation CDKN1A (gene CDKN1A, 20 ug/mL): −1.4 Fold
Fold Up- or Down-Regulation CSF1 (gene CSF1, 20 ug/mL): 1.1 Fold
Fold Up- or Down-Regulation CSF2 (gene CSF2, 20 ug/mL): −1.1 Fold
Fold Up- or Down-Regulation CXCL1 (gene CXCL1, 20 ug/mL): 2.7 Fold
Fold Up- or Down-Regulation CXCL2 (gene CXCL2, 20 ug/mL): 3.0 Fold
Fold Up- or Down-Regulation CXCL3 (gene CXCL3, 20 ug/mL): −1.1 Fold
Fold Up- or Down-Regulation CXCL8 (gene CXCL8, 20 ug/mL): 1.3 Fold
Fold Up- or Down-Regulation CXCL10 (gene CXCL10, 20 ug/mL): 7.6 Fold
Fold Up- or Down-Regulation CYB561 (gene CYB561, 20 ug/mL): −1.2 Fold
Fold Up- or Down-Regulation CYP1A1 (gene CYP1A1, 20 ug/mL): 2.8 Fold
Fold Up- or Down-Regulation DDX5 (gene DDX5, 20 ug/mL): 2.1 Fold
Fold Up- or Down-Regulation DEFB1 (gene DEFB1, 20 ug/mL): 3.4 Fold
Fold Up- or Down-Regulation EPGN (gene EPGN, 20 ug/mL): 1.2 Fold
Fold Up- or Down-Regulation FGF2 (gene FGF2, 20 ug/mL): −2.1 Fold
Fold Up- or Down-Regulation FOS (gene FOS, 20 ug/mL): 15.9 Fold
Fold Up- or Down-Regulation G2E3 (gene G2E3, 20 ug/mL): 4.1 Fold
Fold Up- or Down-Regulation GDF15 (gene GDF15, 20 ug/mL): 1.7 Fold
Fold Up- or Down-Regulation GPADH (gene GPADH (housekeeping), 20 ug/mL): −1.9 Fold
Fold Up- or Down-Regulation GPX2 (gene GPX2, 20 ug/mL): 5.5 Fold
Fold Up- or Down-Regulation HBEGF (gene HBEGF, 20 ug/mL): 3.1 Fold
Fold Up- or Down-Regulation HECTD1 (gene HECTD1, 20 ug/mL): 1.2 Fold
Fold Up- or Down-Regulation HERC1 (gene HERC1, 20 ug/mL): 3.5 Fold
Fold Up- or Down-Regulation HIF1AN (gene HIF1AN, 20 ug/mL): −1.6 Fold
Fold Up- or Down-Regulation HPRT1 (gene HPRT1 (housekeeping), 20 ug/mL): 1.6 Fold
Fold Up- or Down-Regulation HSP90B1 (gene HSP90B1, 20 ug/mL): 1.2 Fold
Fold Up- or Down-Regulation IFI44L (gene IFI44L, 20 ug/mL): 3.9 Fold
Fold Up- or Down-Regulation JUN (gene JUN, 20 ug/mL): 3.3 Fold
Fold Up- or Down-Regulation JUNB (gene JUNB, 20 ug/mL): 1.6 Fold
Fold Up- or Down-Regulation LTB4R (gene LTB4R, 20 ug/mL): −1.3 Fold
Fold Up- or Down-Regulation MAFF (gene MAFF, 20 ug/mL): −1.1 Fold
Fold Up- or Down-Regulation MAP1LC3B (gene MAP1LC3B, 20 ug/mL): 1.2 Fold
Fold Up- or Down-Regulation MAPK14 (gene MAPK14, 20 ug/mL): −1.7 Fold
Fold Up- or Down-Regulation MGAT1 (gene MGAT1, 20 ug/mL): −1.0 Fold
Fold Up- or Down-Regulation MGAT5 (gene MGAT5, 20 ug/mL): −1.8 Fold
Fold Up- or Down-Regulation MOGS (gene MOGS, 20 ug/mL): −2.8 Fold
Fold Up- or Down-Regulation N4BP1 (gene N4BP1, 20 ug/mL): 1.7 Fold
Fold Up- or Down-Regulation NFKBIA (gene NFKBIA, 20 ug/mL): 4.6 Fold
Fold Up- or Down-Regulation PELI1 (gene PELI1, 20 ug/mL): −1.5 Fold
Fold Up- or Down-Regulation PLAUR (gene PLAUR, 20 ug/mL): 2.1 Fold
Fold Up- or Down-Regulation PPP1R15A (gene PPP1R15A, 20 ug/mL): 3.2 Fold
Fold Up- or Down-Regulation PTGFRN (gene PTGFRN, 20 ug/mL): −4.6 Fold
Fold Up- or Down-Regulation PTGS2 (gene PTGS2, 20 ug/mL): −1.1 Fold
Fold Up- or Down-Regulation PTX3 (gene PTX3, 20 ug/mL): 1.1 Fold
Fold Up- or Down-Regulation REL (gene REL, 20 ug/mL): 1.6 Fold
Fold Up- or Down-Regulation RSAD2 (gene RSAD2, 20 ug/mL): 1.9 Fold
Fold Up- or Down-Regulation SAMD9L (gene SAMD9L, 20 ug/mL): 1.3 Fold
Fold Up- or Down-Regulation SOD2 (gene SOD2, 20 ug/mL): 1.2 Fold
Fold Up- or Down-Regulation SPRR2B (gene SPRR2B, 20 ug/mL): 2.4 Fold
Fold Up- or Down-Regulation TGFB1 (gene TGFB1, 20 ug/mL): −1.9 Fold
Fold Up- or Down-Regulation TNF (gene TNF, 20 ug/mL): 16.4 Fold
Fold Up- or Down-Regulation TNFAIP3 (gene TNFAIP3, 20 ug/mL): 2.4 Fold
Fold Up- or Down-Regulation UBE2S (gene UBE2S, 20 ug/mL): 2.2 Fold
Fold Up- or Down-Regulation UBE3B (gene UBE3B, 20 ug/mL): 1.2 Fold
Fold Up- or Down-Regulation UBE4B (gene UBE4B, 20 ug/mL): 1.2 Fold
Fold Up- or Down-Regulation UBE20 (gene UBE20, 20 ug/mL): 1.8 Fold
Fold Up- or Down-Regulation VCP (gene VCP, 20 ug/mL): −2.0 Fold
Fold Up- or Down-Regulation VEGFA (gene VEGFA, 20 ug/mL): 1.5 Fold
